We go through one compound from US5244795A, “Processes for preparing cholesterol lowering compounds” (Merck & Co., Inc., priority 1992, dated 1993).

For orientation: zone of inhibition means the size of the clear area around the sample on an inoculated plate.

Data set [1] in a line: Light stability. The data set is classed as physicochemical.
Data set [2] deals with Torulospora hansenii. The data set can be described thus: FISP disc diffusion assay. The data set is classed as cell-based. Set-up: key: F: clear zone, fuzzy edges; S: slightly hazy zone (some growth observed throughout zone); H: hazy zone (considerable growth observed throughout zone); V: very hazy zone (zone of inhibition is barely discernable); R: zone displays a ring of resistant growth; no qualifier: clear zone throughout, sharp edges. The conditions noted are these: 250 μg/ml in CH2Cl2. The text has this: (§1) The FISP assay employs disc diffusion susceptibility testing methods to generate a spectrum of activity against a panel of representative yeasts, filamentous fungi and bacteria.
(§2) The yeasts employed in the assay are Saccharomyces cerevisiae, Candida albicans, Candida tropicalis, Candida rugosa, Brettanomyces bruxellensis, Torulospora hansenii, Candida guilliermondi, Candida pseudotropicalis, Torulopsis glabrata, Cryptococcus albidus, Cryptococcus laurentii and Kluyveromyces fragilis.
(§3) For carrying out the assay, seeded assay plates are prepared in the following manner according to the type of assay strain.
(§4) Inocula for yeasts and bacterial strains are prepared from overnight broth cultures then diluted into potato dextrose agar to a final concentration of either 40 percent or 70 percent transmission at 660 nm.
(§5) Assay plates for the yeasts and filamentous fungi are prepared by diluting the inoculum into appropriate molten agar medium, cooled to 45° C. to obtain a final concentration of 4 percent.
(§6) The seeded agar media thus prepared are dispensed into petri dishes for assays (11 ml per dish).
(§7) The samples to be tested for production of antifungal agent are applied to 6.2 mm filter paper discs (25 μl/disc) and air dried at 24° C. When the sample to be tested is crude broth, it may be centrifuged prior to application. The discs bearing the material to be tested are then applied employing sterile conditions to the seeded assay plates. The assay plates are then incubated at either 28° C. or 37° C. for 24 hours. In one of the assays for Bacillus subtilis, the sample is applied to a disc previously impregnated with 4M potassium chloride at 25 μl/disc and then air dried.
(§8) Following incubation, the inhibition zones are measured and recorded. The measurements are made from the extreme edge where growth differs from the background zone. The zones are noted as to appearance as fuzzy edge and clear center, hazy throughout, slightly hazy, very hazy or ringed.
(§9) FISP data is reported as the diameter (in mm.) of the zone of inhibition of growth in agar diffusion assays. The zone is determined by measuring growth that differs from the background lawn. A qualifier is also added to describe the zone quality as listed below: no qualifier: clear zone throughout, sharp edges
(In general: A growth-free zone around the sample is the usual read-out of agar diffusion tests.)

Data set [3] deals with Candida rugosa. The data set can be described thus: FISP disc diffusion assay. The data set is classed as cell-based. The conditions noted are these: 250 μg/ml in CH2Cl2. Further details: key: F: clear zone, fuzzy edges; S: slightly hazy zone (some growth observed throughout zone); H: hazy zone (considerable growth observed throughout zone); V: very hazy zone (zone of inhibition is barely discernable); R: zone displays a ring of resistant growth; no qualifier: clear zone throughout, sharp edges.
Source text: as §1, §2, §3, §4, §5, §6, §7, §8, §9

The test system of data set [4] is Kluyveromyces fragilis. The data set can be described thus: FISP disc diffusion assay. The following applies: 250 μg/ml in CH2Cl2. The data set is classed as cell-based. Further details: key: F: clear zone, fuzzy edges; S: slightly hazy zone (some growth observed throughout zone); H: hazy zone (considerable growth observed throughout zone); V: very hazy zone (zone of inhibition is barely discernable); R: zone displays a ring of resistant growth; no qualifier: clear zone throughout, sharp edges.
Source text: as §1, §2, §3, §4, §5, §6, §7, §8, §9

The test system of data set [5] is Cryptococcus albidus. Nature of the data set: FISP disc diffusion assay. The data set is classed as cell-based. Further details: key: F: clear zone, fuzzy edges; S: slightly hazy zone (some growth observed throughout zone); H: hazy zone (considerable growth observed throughout zone); V: very hazy zone (zone of inhibition is barely discernable); R: zone displays a ring of resistant growth; no qualifier: clear zone throughout, sharp edges. The following applies: 250 μg/ml in CH2Cl2.
Source text: as §1, §2, §3, §4, §5, §6, §7, §8, §9

Data set [6] relates to Cryptococcus laurentii. Nature of the data set: FISP disc diffusion assay. The data set is classed as cell-based. The following applies: 250 μg/ml in CH2Cl2. Set-up: key: F: clear zone, fuzzy edges; S: slightly hazy zone (some growth observed throughout zone); H: hazy zone (considerable growth observed throughout zone); V: very hazy zone (zone of inhibition is barely discernable); R: zone displays a ring of resistant growth; no qualifier: clear zone throughout, sharp edges.
Source text: as §1, §2, §3, §4, §5, §6, §7, §8, §9

For data set [7], the system named is Brettanomyces bruxellensis. Nature of the data set: FISP disc diffusion assay. The data set is classed as cell-based. Set-up: key: F: clear zone, fuzzy edges; S: slightly hazy zone (some growth observed throughout zone); H: hazy zone (considerable growth observed throughout zone); V: very hazy zone (zone of inhibition is barely discernable); R: zone displays a ring of resistant growth; no qualifier: clear zone throughout, sharp edges. The conditions noted are these: 250 μg/ml in CH2Cl2.
Source text: as §1, §2, §3, §4, §5, §6, §7, §8, §9

Data set [8] deals with Candida tropicalis. The data set can be described thus: FISP disc diffusion assay. In kind it is cell-based. Set-up: key: F: clear zone, fuzzy edges; S: slightly hazy zone (some growth observed throughout zone); H: hazy zone (considerable growth observed throughout zone); V: very hazy zone (zone of inhibition is barely discernable); R: zone displays a ring of resistant growth; no qualifier: clear zone throughout, sharp edges. The following applies: 250 μg/ml in CH2Cl2.
Source text: as §1, §2, §3, §4, §5, §6, §7, §8, §9

Data set [9] has as its system Bacillus subtilis. Nature of the data set: FISP disc diffusion assay. The data set is classed as cell-based. The following applies: 250 μg/ml in CH2Cl2. How it is done:
as §1
The bacteria employed in the assay are Streptomyces sp., Acholeplasma laidlawii and Bacillus subtilis.
as §3, §4
Seeded agar for Bacillus subtilis are prepared from a commercially available spore suspension which is diluted directly into molten agar (45° C.) to obtain a final concentration of 0.1 percent.
as §6
The samples to be tested for production of antifungal agent are applied to 6.2 mm filter paper discs (25 μl/disc) and air dried at 24° C. When the sample to be tested is crude broth, it may be centrifuged prior to application. […]
(§10) Following incubation, the inhibition zones are measured and recorded. […]
(§11) FISP data is reported as the diameter (in mm.) of the zone of inhibition of growth in agar diffusion assays. The zone is determined by measuring growth that differs from the background lawn. […]

Data set [10] relates to Aspergillus niger. The data set can be described thus: FISP disc diffusion assay. The data set is classed as cell-based. The following applies: 250 μg/ml in CH2Cl2. Set-up: key to zone quality qualifier: F: clear zone, fuzzy edges; S: slightly hazy zone (some growth observed throughout zone); H: hazy zone (considerable growth observed throughout zone); V: very hazy zone (zone of inhibition is barely discernable); R: zone displays a ring of resistant growth; no qualifier: clear zone throughout, sharp edges.
Source text: as §1
The filamentous fungi used in the assay were Penicillium sp. Aspergillus niger, Trichoderma sp., Phoma sp., Trichoderma lignorum, Fusarium oxysporum, Ustilago maydis, Ceratocystis ulmi, Alternaria soloni, Verticillium serrae, Botrytis allii, Scopulariopsis communis, Cephalosporium sp., Cercospora beticola, Rhizomucor miehei, Aspergillus flavus and Aspergillus fumigatus.
as §3
Inocula for filamentous fungi are prepared by scraping the surface of stock plates maintained on potato dextrose agar with a moistened sterile dacron swab. The spores and mycelia are then suspended in 10 milliliters of sterile potato dextrose broth and adjusted to 65 percent transmission at 660 nm. […]
as §10, §11

Data set [11] relates to Candida albicans. The data set can be described thus: FISP disc diffusion assay. The conditions noted are these: 250 μg/ml in CH2Cl2. Further details: key to zone quality qualifier: F: clear zone, fuzzy edges; S: slightly hazy zone (some growth observed throughout zone); H: hazy zone (considerable growth observed throughout zone); V: very hazy zone (zone of inhibition is barely discernable); R: zone displays a ring of resistant growth; no qualifier: clear zone throughout, sharp edges. In kind it is cell-based.
Source text: as §1, §2, §3, §4
(§12) For three strains of Candida albicans and one strain of Saccharomyces cerevisiae, sterile saline is employed in place of potato dextrose broth.
as §5, §6, §7, §8, §9

Data set [12] deals with Saccharomyces cerevisiae. Nature of the data set: FISP disc diffusion assay. In kind it is cell-based. Further details: key to zone quality qualifier: F: clear zone, fuzzy edges; S: slightly hazy zone (some growth observed throughout zone); H: hazy zone (considerable growth observed throughout zone); V: very hazy zone (zone of inhibition is barely discernable); R: zone displays a ring of resistant growth; no qualifier: clear zone throughout, sharp edges. The following applies: 250 μg/ml in CH2Cl2.
Source text: as §1, §2, §3, §4, §12, §5, §6, §7, §8, §9

For `CC(/C=C/C=C(\C)C(O)C(C)C(=O)O[C@H]1C[C@H](C)C=C2C=C[C@@]3(C)O[C@@H](O)CC(=O)[C@]3(C)[C@H]21)=C\C=C\C(=O)O` (stereo partly drawn) [Compound A], the stability result in data set [1] (isolated and worked with in the absence of light) was “stable when isolated and worked with in the absence of light”. In data set [1] (light), the light sensitivity result is recorded as “light sensitive”. For the same compound, the zone quality qualifier result in data set [2] is “H”; in data set [3] it was “S”; in data set [4] it was “V”; in [5] it was “V”; in [6] it was “H and V”; in data set [7], “S”. Besides, the zone quality qualifier entry in [8] is reported as “S”; in data set [10], “H”; in [11], “S”; in data set [11] (YNB), “V”; in data set [11] (YNB/GLU), “H”; in [11] (YNB/NAG), “H”. For the same compound, the zone quality qualifier result in data set [12] and in [12] (YNB) was “H” in each case. Besides, in data set [9] (KCl (disc impregnated with 4M potassium chloride)), the “diameter of the zone of inhibition of growth” value is recorded as 0 mm. The zone of inhibition at 250 µg/mL in data set [9] (Bacillus subtilis, read-out: diameter of the zone of inhibition of growth) came to 0 mm; in data set [10] (Aspergillus niger, read-out: diameter of the zone of inhibition of growth) it was 0 mm; in [11] (Candida albicans, read-out: diameter of the zone of inhibition of growth), 0 mm; in data set [12] (Saccharomyces cerevisiae, read-out: diameter of the zone of inhibition of growth) it was 0 mm.
